Results from ChEMBL document CHEMBL1151183, “New pigments from the terrestrial cyanobacterium Scytonema sp. collected on the Mitaraka inselberg, French Guyana” (J Nat Prod, 2004).
The source made the active and inactive calls.

Experiments:
Staphylococcus aureus = assay: Antimicrobial activity against Staphylococcus aureus ATCC 6538 at 1 uM; assay type: functional, organism-based
Candida tropicalis = assay: Antimicrobial activity against Candida tropicalis IP 209.73 at 1 uM; assay type: functional, organism-based
KB = assay: Cytotoxicity against human KB cells at 0.1 uM; assay type: functional, cell-based
Escherichia coli = assay: Antimicrobial activity against Escherichia coli ATCC 8739 at 1 uM; assay type: functional, organism-based

Measured: Activity

COC(c1ccc(O)cc1)C1(OC)C(=O)/C(=C2/C(=O)/C(=C/c3ccc(O)cc3)c3[nH]c4ccccc4c32)c2c1[nH]c1ccccc21 (configuration not stated)
inactive: Staphylococcus aureus | Candida tropicalis | KB Not toxic | Escherichia coli

COC(=O)C1=C(c2c(/C(=C\c3ccc(O)cc3)C(=O)OC)[nH]c3ccccc23)C(=O)c2[nH]c3ccccc3c21
inactive: Staphylococcus aureus | Candida tropicalis | KB Not toxic | Escherichia coli

COC(c1ccc(O)cc1)C1(OC)C(=O)/C(=C2/C(=O)C(OC)(C(OC)c3ccc(O)cc3)c3[nH]c4ccccc4c32)c2c1[nH]c1ccccc21 (configuration not stated)
inactive: Staphylococcus aureus | Candida tropicalis | KB Not toxic | Escherichia coli
